# Laboratory results as given in US4791215A, “Derivatives of glutamic acid and aspartic acid” (priority 1984, dated 1988).
# Columns and labels:
# [1] = Food consumption on daily oral dosing; assay type: in vivo, rats
# Protocol: (§1) In order to check the hypothesis that the anti-CCK activity shown by most of the compounds in question may be used to advantage in the treatment of anorexia in man or as an appetite stimulant for farm animals, the following experiment was carried out:
# (§2) Male rats having a weight of about 160 g, divided into groups of 10 animals, were used. […]
# (§3) The drug, in the form of the sodium salt, was dissolved in water and administered in a volume of 10 ml of H2 O/kg while the control group received an equal volume of the solvent alone.
# (§4) The following tables give the average values of the food consumption and the average weight of each group of animals, calculated weekly as well as the Student's t value calculated from the various treated groups and the group of control animals.
# [2] = system: endogenous opiates analgesia; assay: Analgesic activity of endogenous opiates released by transcutaneous shock, Tail Flick Test (Experiment 3); assay type: in vivo, rats
# How it was run: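 Non-fasted male rats (~200 g) stressed with 60 Hz-2.5 mA front-leg current, 1 s pulses every 5 s for 20 min, to release endogenous opiates. Analgesia measured by tail flick test.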
# [3] = system: CCK-8 induced contraction of guinea pig gall bladder; assay: Anti-CCK activity on gall bladder strips in vitro; settings: CCK-8 10 ng/ml
# How it was run: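 Longitudinal guinea pig gall bladder strips in Krebs at 32 °C, gassed with O2/CO2 95:5, were contracted with 10 ng/ml CCK-8. Isometric force was recorded across several compound concentrations, and ED50 was taken as the μg/ml concentration antagonising 50% of the CCK contraction.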
# [4] = system: activity of analgesic drugs; assay: Hot-plate test, potentiation of analgesic drugs (Experiment 2); assay type: in vivo, rats
# How it was run: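 Male rats of about 150 g, not fasted, five per group, were placed on a plate held at 55°±1° C. Licking or jumping latency was recorded before and at 10–90 min after dosing, with a 30 s cut-off. A positive response meant at least a doubling of reaction time, reported as positives/treated.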
# [5] = Body weight on daily oral dosing; assay type: in vivo, rats
# Protocol: as §1, §2, §3, §4
smiles,measurement,setting,value
CCCN(CCC)C(=O)C(CCC(=O)O)NC(=O)c1ccc(C)c(C)c1 (stereo not shown) [Compound C-30],food consumption,"[1]; 3 mg/kg os, week 1",193.7 ± 3.58 g/week
same,food consumption,"[1]; 3 mg/kg os, week 2",233.2 ± 4.56 g/week
same,food consumption,"[1]; 3 mg/kg os, week 3",187.1 ± 8.40 g/week
same,food consumption,"[1]; 3 mg/kg os, week 4",204.0 ± 3.63 g/week
same,food consumption,"[1]; 10 mg/kg os, week 1",219.8 ± 5.62 g/week
same,food consumption,"[1]; 10 mg/kg os, week 2",264.3 ± 5.61 g/week
same,food consumption,"[1]; 10 mg/kg os, week 3",234.5 ± 5.05 g/week
same,food consumption,"[1]; 10 mg/kg os, week 4",234.6 ± 3.99 g/week
same,food consumption,"[1]; 30 mg/kg os, week 1",233.7 ± 5.45 g/week
same,food consumption,"[1]; 30 mg/kg os, week 2",267.9 ± 4.92 g/week
same,food consumption,"[1]; 30 mg/kg os, week 3",247.0 ± 5.19 g/week
same,food consumption,"[1]; 30 mg/kg os, week 4",244.5 ± 4.06 g/week
same,"average latency, Tail Flick","[2]; compound 1 mg/kg iv + stress, 5'",7.26 ± 0.52 s
same,"average latency, Tail Flick","[2]; compound 1 mg/kg iv + stress, 10'",6.10 ± 0.49 s
same,"average latency, Tail Flick","[2]; compound 1 mg/kg iv + stress, 15'",4.68 ± 0.5 s
same,"average latency, Tail Flick","[2]; compound 3 mg/kg iv + stress, 5'",9.46 ± 0.64 s
same,"average latency, Tail Flick","[2]; compound 3 mg/kg iv + stress, 10'",7.96 ± 0.61 s
same,"average latency, Tail Flick","[2]; compound 3 mg/kg iv + stress, 15'",6.82 ± 0.78 s
same,ED50 (concentration antagonising 50% of contracting effect of CCK-8),[3],33.5 µg/mL
same,TOTAL positives,[4]; oxyphenylbutazone 50 + compound 3 mg/kg i.p.,11 x/30
same,positive responses over number treated,"[4]; oxyphenylbutazone 50 + compound 3 mg/kg i.p., 10'",1/5
same,positive responses over number treated,"[4]; oxyphenylbutazone 50 + compound 3 mg/kg i.p., 20'",1/5
same,positive responses over number treated,"[4]; oxyphenylbutazone 50 + compound 3 mg/kg i.p., 30'",3/5
same,positive responses over number treated,"[4]; oxyphenylbutazone 50 + compound 3 mg/kg i.p., 45'",2/5
same,positive responses over number treated,"[4]; oxyphenylbutazone 50 + compound 3 mg/kg i.p., 60'",2/5
same,positive responses over number treated,"[4]; oxyphenylbutazone 50 + compound 3 mg/kg i.p., 90'",2/5
same,TOTAL positives,[4]; oxyphenylbutazone 50 + compound 10 mg/kg i.p.,12 x/30
same,positive responses over number treated,"[4]; oxyphenylbutazone 50 + compound 10 mg/kg i.p., 10'",1/5
same,positive responses over number treated,"[4]; oxyphenylbutazone 50 + compound 10 mg/kg i.p., 20'",2/5
same,positive responses over number treated,"[4]; oxyphenylbutazone 50 + compound 10 mg/kg i.p., 30'",2/5
same,positive responses over number treated,"[4]; oxyphenylbutazone 50 + compound 10 mg/kg i.p., 45'",3/5
same,positive responses over number treated,"[4]; oxyphenylbutazone 50 + compound 10 mg/kg i.p., 60'",3/5
same,positive responses over number treated,"[4]; oxyphenylbutazone 50 + compound 10 mg/kg i.p., 90'",2/5
same,TOTAL positives,[4]; oxyphenylbutazone 50 + compound 30 mg/kg i.p.,20 x/30
same,positive responses over number treated,"[4]; oxyphenylbutazone 50 + compound 30 mg/kg i.p., 10'",2/5
same,positive responses over number treated,"[4]; oxyphenylbutazone 50 + compound 30 mg/kg i.p., 20'",3/5
same,positive responses over number treated,"[4]; oxyphenylbutazone 50 + compound 30 mg/kg i.p., 30'",4/5
same,positive responses over number treated,"[4]; oxyphenylbutazone 50 + compound 30 mg/kg i.p., 45'",4/5
same,positive responses over number treated,"[4]; oxyphenylbutazone 50 + compound 30 mg/kg i.p., 60'",4/5
same,positive responses over number treated,"[4]; oxyphenylbutazone 50 + compound 30 mg/kg i.p., 90'",3/5
same,TOTAL positives,[4]; propoxyphene 10 + compound 0.3 mg/kg i.p.,11 X/30
same,positive responses over number treated,"[4]; propoxyphene 10 + compound 0.3 mg/kg i.p., 10'",2/5
same,positive responses over number treated,"[4]; propoxyphene 10 + compound 0.3 mg/kg i.p., 20'",1/5
same,positive responses over number treated,"[4]; propoxyphene 10 + compound 0.3 mg/kg i.p., 30'",3/5
same,positive responses over number treated,"[4]; propoxyphene 10 + compound 0.3 mg/kg i.p., 45'",3/5
same,positive responses over number treated,"[4]; propoxyphene 10 + compound 0.3 mg/kg i.p., 60'",2/5
same,positive responses over number treated,"[4]; propoxyphene 10 + compound 0.3 mg/kg i.p., 90'",0/5
same,TOTAL positives,[4]; propoxyphene 10 + compound 1 mg/kg i.p.,19 X/30
same,positive responses over number treated,"[4]; propoxyphene 10 + compound 1 mg/kg i.p., 10'",3/5
same,positive responses over number treated,"[4]; propoxyphene 10 + compound 1 mg/kg i.p., 20'",4/5
same,positive responses over number treated,"[4]; propoxyphene 10 + compound 1 mg/kg i.p., 30'",4/5
same,positive responses over number treated,"[4]; propoxyphene 10 + compound 1 mg/kg i.p., 45'",4/5
same,positive responses over number treated,"[4]; propoxyphene 10 + compound 1 mg/kg i.p., 60'",2/5
same,positive responses over number treated,"[4]; propoxyphene 10 + compound 1 mg/kg i.p., 90'",2/5
same,TOTAL positives,[4]; propoxyphene 10 + compound 3 mg/kg i.p.,25 X/30
same,positive responses over number treated,"[4]; propoxyphene 10 + compound 3 mg/kg i.p., 10'",3/5
same,positive responses over number treated,"[4]; propoxyphene 10 + compound 3 mg/kg i.p., 20'",5/5
same,positive responses over number treated,"[4]; propoxyphene 10 + compound 3 mg/kg i.p., 30'",5/5
same,positive responses over number treated,"[4]; propoxyphene 10 + compound 3 mg/kg i.p., 45'",5/5
same,positive responses over number treated,"[4]; propoxyphene 10 + compound 3 mg/kg i.p., 60'",4/5
same,positive responses over number treated,"[4]; propoxyphene 10 + compound 3 mg/kg i.p., 90'",3/5
same,body weight,"[5]; 3 mg/kg os, time 0",270.8 ± 8.3 g
same,body weight,"[5]; 3 mg/kg os, week 1",310.2 ± 7.01 g
same,body weight,"[5]; 3 mg/kg os, week 2",380.5 ± 6.5 g
same,body weight,"[5]; 3 mg/kg os, week 3",409.7 ± 2.99 g
same,body weight,"[5]; 3 mg/kg os, week 4",437.3 ± 55 g
same,body weight,"[5]; 10 mg/kg os, time 0",271.4 ± 9.3 g
same,body weight,"[5]; 10 mg/kg os, week 1",332.9 ± 5.7 g
same,body weight,"[5]; 10 mg/kg os, week 2",383.2 ± 6.5 g
same,body weight,"[5]; 10 mg/kg os, week 3",439.1 ± 4.3 g
same,body weight,"[5]; 10 mg/kg os, week 4",470.5 ± 6.5 g
same,body weight,"[5]; 30 mg/kg os, time 0",267.9 ± 7.7 g
same,body weight,"[5]; 30 mg/kg os, week 1",315.7 ± 7.4 g
same,body weight,"[5]; 30 mg/kg os, week 2",371.9 ± 7.9 g
same,body weight,"[5]; 30 mg/kg os, week 3",437.1 ± 5.2 g
same,body weight,"[5]; 30 mg/kg os, week 4",488.1 ± 6.4 g
